The values that follow come from ChEMBL document CHEMBL1126639, “Centrally acting serotonergic and dopaminergic agents. 2. Synthesis and structure-activity relationships of 2,3,3a,4,9,9a-hexahydro-1H-benz[f]indole derivatives” (J Med Chem, 1993).

Assay [1] has as its system Mus musculus. Put plainly: Time of effect in the face-to-face behavioral assay in the mouse when a dose of 11 micro mol/kg is administered perorally. The class given is functional.
Assay [2] has as its system Mus musculus. The assay can be described thus: Time of effect in the isolation-induced aggression behavioral assay in the mouse when a dose of 11 micro mol/kg is administered perorally. The class given is functional.
Assay [3] relates to Rattus norvegicus. The assay can be described thus: Inhibition of firing rates of dopaminergic neurons in the substantia nigra pars compacta by intravenous injection in rats. Type of assay: functional.
The test system of assay [4] is Mus musculus. The assay can be described thus: Time of effect in the isolation-induced aggression behavioral assay in the mouse when a dose of 11 micro mol/kg is administered intraperitoneally. The class given is functional.
Assay [5] concerns Mus musculus. Put plainly: Time of effect in the face-to-face behavioral assay in the mouse when a dose of 0.0 micro mol/kg is administered perorally. The class given is functional.
The test system of assay [6] is Rattus norvegicus. The assay can be described thus: Inhibition of firing rates of serotonergic neurons in the dorsal raphe nucleus by intravenous injection in rats. The class given is functional. Conditions: Rattus norvegicus, Dorsal raphe nucleus, iv; read-out: ED50.
Assay [7] concerns Mus musculus. The assay can be described thus: Time of effect in the isolation-induced aggression behavioral assay in the mouse when a dose of 3.6 micro mol/kg is administered perorally. Type of assay: functional.
Assay [8] has as its system Mus musculus. Put plainly: Time of effect in the isolation-induced aggression behavioral assay in the mouse when a dose of 36 micro mol/kg is administered intraperitoneally. Type of assay: functional.
The subject of assay [9] is Mus musculus. The assay can be described thus: Time of effect in the isolation-induced aggression behavioral assay in the mouse when a dose of 0.0 micro mol/kg is administered intraperitoneally. Type of assay: functional.
The test system of assay [10] is Mus musculus. Put plainly: Time of effect in the isolation-induced aggression behavioral assay in the mouse when a dose of 36 micro mol/kg is administered perorally. Type of assay: functional.
The test system of assay [11] is Rattus norvegicus. The assay can be described thus: Effect on the synthesis rates of dopamine (DOPA accumulation) in the rat ventral limbic brain region at 10.7 uM/kg. The class given is functional, Limbic system.
In assay [12] the target is D(2) dopamine receptor (Rattus norvegicus, UniProt P61169). Put plainly: Binding affinity for [3H]raclopride-labeled dopamine receptor D2 in rat striatum. Type of assay: tissue-based.
Assay [13] deals with Rattus norvegicus. Put plainly: Effect on the synthesis rates of serotonin (5-HTP accumulation) in the rat ventral limbic brain region 10.7 umol/kg. The class given is functional, Limbic system.
For assay [14], the system named is Mus musculus. Put plainly: Time of effect in the face-to-face behavioral assay in the mouse when a dose of 36 micro mol/kg is administered perorally. The class given is functional.
The test system of assay [15] is Mus musculus. The assay can be described thus: Antagonism of apomorphine in reserpinized mice when a dose of 0.03 micro mol/kg is administered intraperitoneally. The class given is functional.
Assay [16] concerns Mus musculus. Put plainly: Antagonism of apomorphine for 10-20 minutes in reserpinized mice when a dose of 3.2 micro mol/kg is administered intraperitoneally. The class given is functional.
For assay [17], the system named is Mus musculus. The assay can be described thus: Ability to stimulate dopaminergic systems by effect on locomotor activity in reserpinized mice when a dose of 0.03 micro mol/kg is administered intraperitoneally. The class given is functional.
The test system of assay [18] is Mus musculus. Put plainly: Ability to stimulate dopaminergic systems by effect on locomotor activity in reserpinized mice when a dose of 3.2 micro mol/kg is administered intraperitoneally. The class given is functional.
The subject of assay [19] is Mus musculus. Put plainly: Antagonism of apomorphine for 0-10 minutes in reserpinized mice when a dose of 32 micro mol/kg is administered intraperitoneally. The class given is functional.
Assay [20] has as its system Mus musculus. The assay can be described thus: Ability to stimulate dopaminergic systems by effect on locomotor activity in reserpinized mice when a dose of 32 micro mol/kg is administered intraperitoneally. Type of assay: functional.
The test system of assay [21] is Mus musculus. Put plainly: Antagonism of apomorphine in reserpinized mice when a dose of 3.2 micro mol/kg is administered intraperitoneally. Type of assay: functional.
For assay [22], the system named is Mus musculus. The assay can be described thus: Antagonism of apomorphine in reserpinized mice when a dose of 0.3 micro mol/kg is administered intraperitoneally. Type of assay: functional.
Assay [23] concerns Rattus norvegicus. The assay can be described thus: Inhibition of firing rates of dopaminergic neurons in the substantia nigra pars compacta by intravenous injection in rats. The class given is functional.
The subject of assay [24] is Rattus norvegicus. The assay can be described thus: Effect on the synthesis rates of dopamine in the rat ventral limbic brain region at 3.2 micro mol/kg. Type of assay: functional, Limbic system.
Assay [25] concerns Mus musculus. The assay can be described thus: Antagonism of apomorphine for 0-10 minutes in reserpinized mice when a dose of 0.3 micro mol/kg is administered intraperitoneally. Type of assay: functional.
In assay [26] the test system is Mus musculus. The assay can be described thus: Antagonism of apomorphine for 10-20 minutes in reserpinized mice when a dose of 32 micro mol/kg is administered intraperitoneally. The class given is functional.
Assay [27] relates to Mus musculus. The assay can be described thus: Antagonism of apomorphine for 10-20 minutes in reserpinized mice when a dose of 0.03 micro mol/kg is administered intraperitoneally. Type of assay: functional.
Assay [28] deals with Mus musculus. The assay can be described thus: Ability to stimulate dopaminergic systems by effect on locomotor activity in reserpinized mice when a dose of 0.3 micro mol/kg is administered intraperitoneally. The class given is functional.
The test system of assay [29] is Mus musculus. Put plainly: Antagonism of apomorphine in reserpinized mice when a dose of 32 micro mol/kg is administered intraperitoneally. Type of assay: functional.
Assay [30] relates to Rattus norvegicus. Put plainly: Effect on the synthesis rates of serotonin in the rat ventral limbic brain region 3.2 micro mol/kg. Values are given as percent change from the control. Type of assay: functional, Limbic system.
Assay [31] deals with Mus musculus. The assay can be described thus: Antagonism of apomorphine for 10-20 minutes in reserpinized mice when a dose of 0.3 micro mol/kg is administered intraperitoneally. The class given is functional.
Assay [32] concerns Mus musculus. Put plainly: Antagonism of apomorphine for 0-10 minutes in reserpinized mice when a dose of 0.03 micro mol/kg is administered intraperitoneally. The class given is functional.
For assay [33], the system named is Mus musculus. Put plainly: Antagonism of apomorphine for 0-10 minutes in reserpinized mice when a dose of 3.2 micro mol/kg is administered intraperitoneally. The class given is functional.
Assay [34] deals with Mus musculus. Put plainly: Time of effect in the face-to-face behavioral assay in the mouse when a dose of 0.4 micro mol/kg is administered subcutaneously. Type of assay: functional.
Assay [35] deals with Mus musculus. The assay can be described thus: Effective dose on hypothermia in mouse when administered subcutaneously. Type of assay: functional.
For assay [36], the species on record is Mus musculus. The assay can be described thus: Time of effect in the face-to-face behavioral assay in the mouse […]. Type of assay: functional.
The test system of assay [37] is Rattus norvegicus. Put plainly: Effect on the synthesis rates of serotonin in the rat ventral limbic brain region 10.7 micro mol/kg. The class given is functional, Limbic system.
In assay [38] the test system is Mus musculus. Put plainly: Time of effect in the face-to-face behavioral assay in the mouse when a dose of 3.6 micro mol/kg is administered subcutaneously. The class given is functional.
Assay [39] has as its system Rattus norvegicus. Put plainly: Effect on the synthesis rates of dopamine (DOPA accumulation) in the rat ventral limbic brain region at 10.7 micro mol/kg. Type of assay: functional, Limbic system.
Assay [40] concerns Mus musculus. Put plainly: Time of effect in the isolation-induced aggression behavioral assay in the mouse when a dose of 3.6 micro mol/kg is administered intraperitoneally (*,p<0.05). The class given is functional.
Assay [41] deals with Mus musculus. Put plainly: Time of effect in the isolation-induced aggression behavioral assay in the mouse when a dose of 0.0 micro mol/kg is administered perorally. The class given is functional.
Assay [42] relates to Felis catus. The assay can be described thus: Maximum decrease of sympathetic nerve activity (SND) in anesthetized cat. Type of assay: functional. Further details: scale not given: the % may be the effect or the level left.
The test system of assay [43] is Mus musculus. Put plainly: Time of effect in the face-to-face behavioral assay in the mouse when a dose of 36 micro mol/kg is administered subcutaneously. Type of assay: functional.
In assay [44] the test system is Mus musculus. Put plainly: Maximum decrease in temperature when compound is administered through peroral route. Type of assay: functional.
In assay [45] the test system is Mus musculus. The assay can be described thus: Time of effect in the isolation-induced aggression behavioral assay in the mouse when a dose of 36 micro mol/kg is administered intraperitoneally (*,p<0.05). Type of assay: functional.
The test system of assay [46] is Mus musculus. The assay can be described thus: Maximum decrease in temperature when compound is administered subcutaneously. The class given is functional.
Assay [47] concerns Felis catus. The assay can be described thus: Maximum decrease of arterial blood pressure at sympathetic nerve activity (SND) in anesthetized cat has been observed following 1 mg/kg dose. The class given is functional. Further details: scale not given: the % may be the effect or the level left.
The subject of assay [48] is Mus musculus. The assay can be described thus: Effective dose on hypothermia in mouse when administered through peroral route. The class given is functional.
Assay [49] relates to Mus musculus. Put plainly: Time of effect in the isolation-induced aggression behavioral assay in the mouse when a dose of 0.4 micro mol/kg is administered intraperitoneally. The class given is functional.

Molecules are shown by their SMILES.

Chain of D(2) dopamine receptor (P61169 whole entry): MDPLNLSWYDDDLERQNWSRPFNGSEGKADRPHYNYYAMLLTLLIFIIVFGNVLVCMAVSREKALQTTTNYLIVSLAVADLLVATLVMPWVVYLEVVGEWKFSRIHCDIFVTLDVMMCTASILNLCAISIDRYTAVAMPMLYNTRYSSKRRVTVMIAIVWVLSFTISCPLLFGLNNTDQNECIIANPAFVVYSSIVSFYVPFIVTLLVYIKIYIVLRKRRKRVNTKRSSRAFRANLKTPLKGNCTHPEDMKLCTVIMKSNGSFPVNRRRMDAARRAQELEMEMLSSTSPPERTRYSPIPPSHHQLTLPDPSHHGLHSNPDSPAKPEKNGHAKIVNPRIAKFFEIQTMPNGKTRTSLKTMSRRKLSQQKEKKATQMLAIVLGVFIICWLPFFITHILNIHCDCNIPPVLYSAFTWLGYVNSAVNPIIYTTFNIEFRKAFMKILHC

Usually Ki stands for the dissociation constant of the complex between target and ligand, obtained from inhibition or displacement. As for `C=CCN1CC[C@H]2Cc3c(cccc3OC)C[C@@H]21`, the Time in assay [1] amounted to 0.7 s; in assay [2] it was 63 s; in assay [4], 46 s; in assay [5] it was 0.3 s; in assay [7], 36 s; in assay [8], 83 s. Moreover, the Time in [9] came to 5 s; in [10], 219 s; in assay [14], 0.9 s. The values for the ED50 in assay [3] and in assay [6] were 4.75 µmol/kg and 3.97 µmol/kg, respectively. Moreover, the Control is on record as 29% in [11] and 4% in [13]. The molecule further showed an inhibition constant (Ki) in assay [12] of more than 1 µM.

Turning to `CN1CCc2cccc3c2[C@H]1Cc1ccc(O)c(O)c1-3` [APOMORPHINE], the Locomotor activity in assay [15] is listed as 119; in assay [16] it was 42; in assay [17] it was 22; in assay [18], 1777; in assay [19], 69; in assay [20], 1184. In addition, the Locomotor activity in assay [21] came to 139; in [22], 135; in assay [25], 73; in [26], 66; in [27], 86; in [28], 150. Further, the Locomotor activity in assay [29] is 113; in assay [31], 96; in [32] it was 78; in assay [33] it was 52. In [23], this molecule came in with an ED50 of 0.031 µmol/kg. For the same molecule, the Control in [24] is -55%; in assay [30] it was 17%.

`C=CCN1CC[C@@H]2Cc3c(cccc3OC)C[C@H]21` (racemic): the Time in assay [34] is reported as 1.5 s; in assay [36] it was 0.9 s; in [2] it was 218 s; in assay [38], 3.6 s; in assay [40] it was 147 s; in assay [41], 73 s. The Time stood at 88 s in [7]; 3 s in assay [9]; 393 s in [10]; 6.9 s in assay [43]; 522 s in assay [45]; 3 s in assay [49]. The ED50 worked out at 2.6 µM/kg in [35], 0.14 µmol/kg in assay [6] and 4.6 µM/kg in [48]. For the same molecule, the Control is given as -39 in assay [37], -26 in assay [39], 78% in [42] and 63% in assay [47]. For the same molecule, the Max temperature decrease in assay [44] was 9.9; in assay [46], 7.8. In [12], this molecule returned an inhibitory constant (Ki) of more than 1 µM.
